Values of other authors, collected in PMC6572427, “Peptosome Coadministration Improves Nanoparticle Delivery to Tumors through NRP1-Mediated Co-Endocytosis” (Biomolecules, 2019).

Conditions: in vivo
Source text: Therefore, its fluorescence signal can be used to reflect the integrity of peptosomes and estimate the in vivo plasma stability. […] Blood was then collected at different time points after the injection as described in the methods, and the fluorescence signals were detected using an IVIS Spectrum in vivo ...

plasma half-life: eight
Sequence: CRGDKGPDC [iRGD]
